Results as given in patent US11021467B2, “Phosphatidylinositol 3-kinase inhibitors” (Gilead Sciences, Inc., priority 2014, dated 2021).

How the values were obtained:
Assay in all cases: TR-FRET enzymatic activity assay against PI3K isoforms
Format in all cases: biochemical
[1] = biological target: PI3Kβ (Homo sapiens (Human), UniProt P42338); details: PI3Kβ, TR-FRET, 2×Km ATP, 30 minutes at 25° C.
Description: (§1) The compounds of formula (I) were characterized for their enzymatic activity against the PI3K isoforms. […] TR-FRET monitored the formation of 3,4,5-inositol triphosphate molecule that competed with fluorescently labeled PIP3 for binding to the GRP-1 pleckstrin homology domain protein.

[2] = biological target: PI3Kγ (Homo sapiens (Human), UniProt P48736); details: 2×Km ATP, 30 minutes at 25° C.
Description: as §1

[3] = biological target: PI3Kδ (Homo sapiens (Human), UniProt O00329); details: 2×Km ATP, 30 minutes at 25° C.
Description: as §1

PI3Kγ, sequence (P48736 whole entry): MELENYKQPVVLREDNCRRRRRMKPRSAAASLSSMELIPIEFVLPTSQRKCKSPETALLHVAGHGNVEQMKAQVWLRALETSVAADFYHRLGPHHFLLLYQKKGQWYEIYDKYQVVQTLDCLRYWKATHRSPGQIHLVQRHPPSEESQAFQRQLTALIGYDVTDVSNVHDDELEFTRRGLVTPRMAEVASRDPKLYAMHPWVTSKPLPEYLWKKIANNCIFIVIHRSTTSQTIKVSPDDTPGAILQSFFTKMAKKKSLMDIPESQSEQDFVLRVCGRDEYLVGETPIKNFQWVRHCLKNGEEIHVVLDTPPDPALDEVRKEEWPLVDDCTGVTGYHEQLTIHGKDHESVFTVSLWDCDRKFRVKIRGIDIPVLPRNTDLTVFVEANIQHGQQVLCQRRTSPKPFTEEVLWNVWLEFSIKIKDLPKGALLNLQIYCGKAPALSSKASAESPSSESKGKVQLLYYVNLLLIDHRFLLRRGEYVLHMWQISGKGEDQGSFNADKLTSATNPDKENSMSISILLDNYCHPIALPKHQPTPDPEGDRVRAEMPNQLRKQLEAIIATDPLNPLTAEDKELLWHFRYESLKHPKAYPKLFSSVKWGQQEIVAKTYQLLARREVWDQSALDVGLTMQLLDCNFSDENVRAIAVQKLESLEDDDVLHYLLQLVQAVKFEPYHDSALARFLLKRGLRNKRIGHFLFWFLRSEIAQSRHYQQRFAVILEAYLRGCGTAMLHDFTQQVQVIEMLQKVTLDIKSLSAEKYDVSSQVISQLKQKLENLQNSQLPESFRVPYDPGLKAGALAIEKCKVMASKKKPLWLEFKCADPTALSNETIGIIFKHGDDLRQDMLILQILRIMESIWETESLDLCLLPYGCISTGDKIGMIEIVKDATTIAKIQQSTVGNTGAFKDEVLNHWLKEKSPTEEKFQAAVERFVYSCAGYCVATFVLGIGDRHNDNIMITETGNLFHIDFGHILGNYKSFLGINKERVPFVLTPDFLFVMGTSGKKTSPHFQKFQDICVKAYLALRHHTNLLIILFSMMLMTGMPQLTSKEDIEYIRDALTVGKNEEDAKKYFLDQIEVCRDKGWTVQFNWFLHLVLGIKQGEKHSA
PI3Kδ, sequence (O00329 whole entry): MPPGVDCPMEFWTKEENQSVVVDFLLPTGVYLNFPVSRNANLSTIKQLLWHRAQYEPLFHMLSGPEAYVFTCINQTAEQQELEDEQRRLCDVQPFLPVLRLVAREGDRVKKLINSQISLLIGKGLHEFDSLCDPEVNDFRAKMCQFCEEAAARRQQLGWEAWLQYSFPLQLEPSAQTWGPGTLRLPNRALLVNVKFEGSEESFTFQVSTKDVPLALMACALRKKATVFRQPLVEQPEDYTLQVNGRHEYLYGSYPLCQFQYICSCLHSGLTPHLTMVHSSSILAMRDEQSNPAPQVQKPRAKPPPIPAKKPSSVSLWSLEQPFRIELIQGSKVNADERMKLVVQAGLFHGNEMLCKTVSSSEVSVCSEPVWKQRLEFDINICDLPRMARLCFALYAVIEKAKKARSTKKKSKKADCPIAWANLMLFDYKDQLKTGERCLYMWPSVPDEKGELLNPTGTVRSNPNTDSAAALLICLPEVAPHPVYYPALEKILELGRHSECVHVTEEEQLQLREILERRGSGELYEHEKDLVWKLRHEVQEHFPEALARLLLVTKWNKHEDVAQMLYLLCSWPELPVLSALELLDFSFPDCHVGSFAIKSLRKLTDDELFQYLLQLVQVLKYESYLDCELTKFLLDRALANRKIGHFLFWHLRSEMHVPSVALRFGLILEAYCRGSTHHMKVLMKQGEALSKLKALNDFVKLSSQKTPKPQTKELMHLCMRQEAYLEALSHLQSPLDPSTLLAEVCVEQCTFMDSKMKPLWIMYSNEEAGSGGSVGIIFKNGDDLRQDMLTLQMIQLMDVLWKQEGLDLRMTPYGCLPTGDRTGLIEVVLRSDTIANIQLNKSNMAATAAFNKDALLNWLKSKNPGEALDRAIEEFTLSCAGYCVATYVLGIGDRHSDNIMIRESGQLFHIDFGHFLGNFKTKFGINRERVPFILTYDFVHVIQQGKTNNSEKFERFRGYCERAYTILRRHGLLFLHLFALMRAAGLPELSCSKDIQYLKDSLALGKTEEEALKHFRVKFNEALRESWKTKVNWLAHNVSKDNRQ
PI3Kδ, sequence (P27986 whole entry partner): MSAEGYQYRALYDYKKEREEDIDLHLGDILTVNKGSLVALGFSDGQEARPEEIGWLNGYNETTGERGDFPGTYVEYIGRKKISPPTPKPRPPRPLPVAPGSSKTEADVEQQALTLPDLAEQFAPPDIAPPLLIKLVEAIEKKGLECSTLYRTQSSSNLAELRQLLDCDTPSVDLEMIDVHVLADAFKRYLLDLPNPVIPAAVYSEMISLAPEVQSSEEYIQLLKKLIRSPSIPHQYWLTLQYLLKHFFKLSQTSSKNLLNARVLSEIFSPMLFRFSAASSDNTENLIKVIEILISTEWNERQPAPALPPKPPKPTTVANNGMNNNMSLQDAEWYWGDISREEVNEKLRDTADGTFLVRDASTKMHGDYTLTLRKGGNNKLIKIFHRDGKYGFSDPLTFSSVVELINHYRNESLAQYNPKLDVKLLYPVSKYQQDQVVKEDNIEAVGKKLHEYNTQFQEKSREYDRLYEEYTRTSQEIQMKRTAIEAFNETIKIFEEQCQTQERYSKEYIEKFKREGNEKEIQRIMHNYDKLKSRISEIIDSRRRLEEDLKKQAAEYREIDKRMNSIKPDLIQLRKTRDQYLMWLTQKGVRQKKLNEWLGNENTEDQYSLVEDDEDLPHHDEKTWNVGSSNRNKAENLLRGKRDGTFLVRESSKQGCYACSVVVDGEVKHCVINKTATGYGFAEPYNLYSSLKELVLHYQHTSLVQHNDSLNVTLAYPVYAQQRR
PI3Kβ, sequence (P42338 whole entry, the tested form may be a part, canonical isoform): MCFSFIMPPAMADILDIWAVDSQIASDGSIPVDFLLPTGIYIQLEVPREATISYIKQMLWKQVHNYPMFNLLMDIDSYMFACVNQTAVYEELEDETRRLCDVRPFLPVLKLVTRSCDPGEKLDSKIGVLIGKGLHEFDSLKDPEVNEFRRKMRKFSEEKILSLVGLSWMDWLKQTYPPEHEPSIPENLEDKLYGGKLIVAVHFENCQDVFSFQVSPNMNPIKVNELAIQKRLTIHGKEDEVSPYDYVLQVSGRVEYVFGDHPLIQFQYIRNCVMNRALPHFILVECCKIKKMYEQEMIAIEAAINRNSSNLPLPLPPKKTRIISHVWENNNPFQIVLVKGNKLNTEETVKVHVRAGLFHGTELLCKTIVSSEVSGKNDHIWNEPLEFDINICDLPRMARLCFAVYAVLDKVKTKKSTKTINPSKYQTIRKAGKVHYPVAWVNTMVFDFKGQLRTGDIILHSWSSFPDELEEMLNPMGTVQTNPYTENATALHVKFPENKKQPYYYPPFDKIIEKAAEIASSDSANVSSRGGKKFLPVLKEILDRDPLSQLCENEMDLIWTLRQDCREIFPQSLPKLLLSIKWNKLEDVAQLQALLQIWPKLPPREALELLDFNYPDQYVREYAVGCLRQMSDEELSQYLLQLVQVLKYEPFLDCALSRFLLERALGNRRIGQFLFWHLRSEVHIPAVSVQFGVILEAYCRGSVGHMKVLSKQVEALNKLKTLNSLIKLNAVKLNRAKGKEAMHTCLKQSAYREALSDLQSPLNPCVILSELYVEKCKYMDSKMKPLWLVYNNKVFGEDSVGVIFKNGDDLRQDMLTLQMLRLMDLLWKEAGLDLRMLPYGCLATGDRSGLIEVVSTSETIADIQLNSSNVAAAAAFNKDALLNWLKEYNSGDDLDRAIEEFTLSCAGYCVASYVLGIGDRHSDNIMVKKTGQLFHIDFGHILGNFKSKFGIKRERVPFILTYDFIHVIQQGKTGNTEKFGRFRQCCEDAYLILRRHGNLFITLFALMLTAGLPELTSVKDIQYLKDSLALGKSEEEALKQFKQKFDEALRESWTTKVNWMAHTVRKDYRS
PI3Kβ, sequence (P27986 whole entry partner, the tested form may be a part, canonical isoform): as the sequence (P27986 whole entry partner) above

Row | IC50 [1] [nM] | IC50 [2] [nM] | IC50 [3] [nM] | Compound
1 | 130 | 720 | 2 | C[C@H](Nc1nc(N)nc(N)c1C#N)c1nc2cccc(Cl)c2c(=O)n1CCCN1CCOCC1 [Compound 127, (S)-2,4-diamino-6-((1-(5-chloro-3-(3-morpholinopropyl)-4-oxo-3,4-dihydroquinazolin-2-yl)ethyl)amino)pyrimidine-5-carbonitrile]
2 | 530 | 280 | 15 | C[C@H](Nc1nc(N)nc(N)c1C#N)c1nc2cccc(Cl)c2c(=O)n1CCC(=O)N(C)C [Compound 128, (S)-3-(5-chloro-2-(1-((2,6-diamino-5-cyanopyrimidin-4-yl)amino)ethyl)-4-oxoquinazolin-3(4H)-yl)-N,N-dimethylpropanamide]
3 | 290 | 530 | 2 | COC(C)(C)CCn1c([C@H](C)Nc2nc(N)nc(N)c2C#N)nc2cccc(Cl)c2c1=O [Compound 129, (S)-2,4-diamino-6-((1-(5-chloro-3-(3-methoxy-3-methylbutyl)-4-oxo-3,4-dihydroquinazolin-2-yl)ethyl)amino)pyrimidine-5-carbonitrile]
4 | 120 | 410 | 3 | CCOCCn1c([C@H](C)Nc2nc(N)nc(N)c2C#N)nc2cccc(Cl)c2c1=O [Compound 130, (S)-2,4-diamino-6-((1-(5-chloro-3-(2-ethoxyethyl)-4-oxo-3,4-dihydroquinazolin-2-yl)ethyl)amino)pyrimidine-5-carbonitrile]
5 | 210 | 1400 | 13 | COCC(COC)n1c([C@H](C)Nc2nc(N)nc(N)c2C#N)nc2cccc(Cl)c2c1=O [Compound 131, (S)-2,4-diamino-6-((1-(5-chloro-3-(1,3-dimethoxypropan-2-yl)-4-oxo-3,4-dihydroquinazolin-2-yl)ethyl)amino)pyrimidine-5-carbonitrile]
6 | 58 | 330 | 2 | COC[C@H](C)n1c([C@H](C)Nc2nc(N)nc(N)c2C#N)nc2cccc(Cl)c2c1=O [Compound 132, 2,4-diamino-6-(((S)-1-(5-chloro-3-((S)-1-methoxypropan-2-yl)-4-oxo-3,4-dihydroquinazolin-2-yl)ethyl)amino)pyrimidine-5-carbonitrile]
7 | 550 | ≥ 10000 | 4 | C[C@H](Nc1ncnc(N)c1C#N)c1nc2cccc(Cl)c2c(=O)n1CCCN1CCCCC1 [Compound 134, (S)-4-amino-6-((1-(5-chloro-4-oxo-3-(3-(piperidin-1-yl)propyl)-3,4-dihydroquinazolin-2-yl)ethyl)amino)pyrimidine-5-carbonitrile]
8 | 640 | ≥ 10000 | 6 | C[C@H](Nc1ncnc(N)c1C#N)c1nc2cccc(Cl)c2c(=O)n1CCCN1CCN(C)CC1 [Compound 135, (S)-4-amino-6-((1-(5-chloro-3-(3-(4-methylpiperazin-1-yl)propyl)-4-oxo-3,4-dihydroquinazolin-2-yl)ethyl)amino)pyrimidine-5-carbonitrile]
9 | 990 | ≥ 10000 | 25 | C[C@H](Nc1ncnc(N)c1C#N)c1nc2cccc(Cl)c2c(=O)n1CCN1CCCC1 [Compound 136, (S)-4-amino-6-((1-(5-chloro-4-oxo-3-(2-(pyrrolidin-1-yl)ethyl)-3,4-dihydroquinazolin-2-yl)ethyl)amino)pyrimidine-5-carbonitrile]
10 | 760 | ≥ 10000 | 27 | C[C@H](Nc1nc(N)nc(N)c1C#N)c1nc2cccc(Cl)c2c(=O)n1CCN1CCCC1 [Compound 137, (S)-2,4-diamino-6-((1-(5-chloro-4-oxo-3-(2-(pyrrolidin-1-yl)ethyl)-3,4-dihydroquinazolin-2-yl)ethyl)amino)pyrimidine-5-carbonitrile]
11 | 410 | 590 | 6 | C[C@H](Nc1nc(N)nc(N)c1C#N)c1nc2cccc(Cl)c2c(=O)n1CCc1ccn[nH]1 [Compound 140, (S)-4-((1-(3-(2-(1H-pyrazol-5-yl)ethyl)-5-chloro-4-oxo-3,4-dihydroquinazolin-2-yl)ethyl)amino)-2,6-diaminopyrimidine-5-carbonitrile]
12 | 527 | ≥ 10000 | 87 | C[C@H](Nc1ncnc(N)c1C#N)c1nc2cccc(Cl)c2c(=O)n1C[C@@H](O)CO [Compound 142]
13 | 374 | 4240 | 34 | C[C@H](Nc1ncnc(N)c1C#N)c1nc2cccc(Cl)c2c(=O)n1C[C@H](O)CO [Compound 143]
